Data as given in patent US11306036B2, “Composition containing a urease inhibitor” (RHODIA OPERATIONS, priority 2016, dated 2022).

Assay: Stability test: remaining NBPT content on treated granulated urea after storage (HPLC)
Type: physicochemical
Settings: storage at 40° C., 50% humidity, up to 90 days
Method: The sample was prepared by mixing 6.00 g of TMBPA and 8.11 g of NBPT (98% purity) in 15.89 g of Augeo® SL 191 at a temperature of 25° C. The concentration of TMBPA was 20% and the concentration of NBPT was 26.5%. Then, the solution prepared was sprayed onto 50 g of granulated urea at a dosage of 0.3% of urea weight.
For stability tests, the treated granulated urea was kept at 40° C. and an atmospheric humidity of 50% for 30 days, 60 days and 90 days, respectively. The remaining NBPT content (expressed as percentages based on initial NBPT content) was measured by using HPLC analysis according to the standard procedure.

Compound: CCCCNP(N)(N)=S [NBPT, N-(n-butyl)thiophosphoric acid triamide]
- stability of NBPT after application to the urea fertilizer (in words): poor stability
